Here are results for eight molecules from ChEMBL document CHEMBL1127824, “6,6-Disubstituted Hex-5-enoic acid derivatives as combined thromboxane A2 receptor antagonists and synthetase inhibitors” (J Med Chem, 1994).

The target of one assay is T1, Thromboxane-A synthase (Homo sapiens, UniProt P24557).
T1 sequence (P24557 whole entry): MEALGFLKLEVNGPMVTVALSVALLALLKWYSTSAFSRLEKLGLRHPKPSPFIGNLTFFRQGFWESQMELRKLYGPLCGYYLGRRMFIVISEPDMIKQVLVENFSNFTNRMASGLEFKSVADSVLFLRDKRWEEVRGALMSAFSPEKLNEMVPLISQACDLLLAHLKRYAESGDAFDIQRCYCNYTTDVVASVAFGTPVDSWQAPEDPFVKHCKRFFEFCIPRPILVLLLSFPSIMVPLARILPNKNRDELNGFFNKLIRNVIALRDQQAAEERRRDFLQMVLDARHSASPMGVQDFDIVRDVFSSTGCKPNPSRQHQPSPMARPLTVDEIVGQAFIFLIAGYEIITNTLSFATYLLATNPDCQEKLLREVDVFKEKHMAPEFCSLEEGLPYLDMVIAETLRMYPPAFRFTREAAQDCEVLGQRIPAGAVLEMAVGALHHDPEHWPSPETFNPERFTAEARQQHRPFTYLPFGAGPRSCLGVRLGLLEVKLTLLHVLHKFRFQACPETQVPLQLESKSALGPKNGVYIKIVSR

The species entered for the next assay is Homo sapiens. Kind of assay: tissue or blood. The class given is functional, organism-based. To be noted: Plasma.
For the next assay, the target named is T2, Thromboxane A2 receptor (Homo sapiens, UniProt P21731).
T2 sequence (P21731 whole entry): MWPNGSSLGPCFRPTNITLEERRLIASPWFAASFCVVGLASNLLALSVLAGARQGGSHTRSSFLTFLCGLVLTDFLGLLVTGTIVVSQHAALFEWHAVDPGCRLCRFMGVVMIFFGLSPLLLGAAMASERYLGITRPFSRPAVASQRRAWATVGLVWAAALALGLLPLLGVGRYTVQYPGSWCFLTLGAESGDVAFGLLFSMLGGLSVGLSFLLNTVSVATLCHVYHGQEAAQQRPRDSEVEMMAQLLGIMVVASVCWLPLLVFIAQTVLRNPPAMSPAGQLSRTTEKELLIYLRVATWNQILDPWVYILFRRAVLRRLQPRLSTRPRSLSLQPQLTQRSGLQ

Description for Homo sapiens: Inhibition of collagen-induced platelet aggregation in human platelet-rich plasma.
Description for Thromboxane-A synthase: Inhibition test of thromboxane A2 synthetase in human gel-filtered platelets.

In the case of `O=C(O)CCC/C=C(\c1ccc(NS(=O)(=O)c2ccc(Cl)cc2)cc1)c1cccnc1`, the IC50 was determined as 5 nM on Thromboxane-A synthase and 270 nM at Thromboxane A2 receptor. This molecule also came in with an EC50 in the assay listed under Homo sapiens above 100000 nM.

Consider `O=C(O)CCC/C=C(\c1ccc(CCN(Cc2ccccc2)S(=O)(=O)c2ccc(Cl)cc2)cc1)c1cccnc1`, for which the values for the IC50 against Thromboxane-A synthase and at Thromboxane A2 receptor were 43 nM and 62 nM, respectively. In addition, in the assay filed under Homo sapiens, a half-maximal response (EC50) required 11000 nM.

In the case of `O=C(O)CCC/C=C(/c1cccnc1)c1cccc(CNS(=O)(=O)c2ccc(Cl)cc2)c1`, the values for the IC50 against Thromboxane-A synthase and on Thromboxane A2 receptor were 5 nM and 21 nM, respectively. Besides, in the assay filed under Homo sapiens, the EC50 was found to be 3800 nM.

`CC(C)(C)OC(=O)CCC/C=C(\c1ccc(CCNS(=O)(=O)c2ccc(Cl)cc2)cc1)c1cccnc1`: the IC50 at Thromboxane-A synthase came to 150 nM; against Thromboxane A2 receptor, 200 nM. The response in the assay listed under Homo sapiens was half-maximal at 60000 nM (EC50).

With `O=C(O)CCC/C=C(\c1ccc(CCNS(=O)(=O)c2ccc(Cl)cc2)cc1)c1cccnc1` [SAMIXOGREL], the IC50 on Thromboxane-A synthase stood at 4 nM; against Thromboxane A2 receptor it was 19 nM. The molecule further showed a concentration for a half-maximal effect (EC50) in the assay listed under Homo sapiens of 1000 nM.

Take `O=C(O)CCC/C=C(\c1ccc(CCNS(=O)(=O)Cc2ccccc2)cc1)c1cccnc1`: the values for the IC50 against Thromboxane-A synthase and at Thromboxane A2 receptor were 5 nM and 260 nM, respectively. Also, in the assay filed under Homo sapiens, the half-maximal effective concentration (EC50) is 5300 nM.

Regarding `O=C(O)CCC/C=C(\CCCNS(=O)(=O)c1ccc(Cl)cc1)c1cccnc1`, the values for the IC50 on Thromboxane-A synthase and at Thromboxane A2 receptor were 24 nM and 330 nM, respectively. In the assay listed under Homo sapiens, this molecule gave an EC50 of 47000 nM.

Consider `Cc1ccc(S(=O)(=O)NCCc2ccc(/C(=C\C(=O)O)c3cccnc3)cc2)cc1`, for which the IC50 against Thromboxane-A synthase was 2700 nM; against Thromboxane A2 receptor, 1200 nM. In the assay filed under Homo sapiens, this molecule showed a half-maximal effective concentration (EC50) above 100000 nM.

Broadly, the IC50 is the point on the concentration scale where inhibition reaches its midpoint. Low readings indicate inhibition by little substance, high ones a need for much substance. For orientation: EC50 means the midpoint of the concentration-response curve.
